≈ marks a conversion by molar mass, not a printed value.
Key:
[1] = system: Bacillus subtilis; test: Antibacterial activity against Bacillus subtilis 168; type: functional
[2] = system: Staphylococcus aureus; test: Antibacterial activity against Staphylococcus aureus ATCC 29213; type: functional
[3] = target: T1, Cell division protein FtsZ (Bacillus subtilis (strain 168)) (UniProt P17865); test: Inhibition of FtsZ-mediated cell division in Bacillus subtilis 168 assessed as drug concentration required to produce filamentation
T1 sequence (whole entry): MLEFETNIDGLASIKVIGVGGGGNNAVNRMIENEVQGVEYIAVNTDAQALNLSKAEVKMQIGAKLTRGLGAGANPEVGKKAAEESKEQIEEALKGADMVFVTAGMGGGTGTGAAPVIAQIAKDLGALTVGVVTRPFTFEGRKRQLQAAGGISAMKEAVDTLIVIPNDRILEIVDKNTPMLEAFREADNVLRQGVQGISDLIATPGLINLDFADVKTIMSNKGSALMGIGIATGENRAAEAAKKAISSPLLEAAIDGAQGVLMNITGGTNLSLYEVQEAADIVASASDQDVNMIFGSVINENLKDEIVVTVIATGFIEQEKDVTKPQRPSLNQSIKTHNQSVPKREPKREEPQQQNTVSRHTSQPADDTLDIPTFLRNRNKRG

[4] = target: T2, Cell division protein FtsZ (Staphylococcus aureus) (UniProt P0A031); test: Inhibition of FtsZ-mediated cell division in Staphylococcus aureus ATCC 29213 assessed as drug concentration required to produce ballooning
T2 sequence (whole entry): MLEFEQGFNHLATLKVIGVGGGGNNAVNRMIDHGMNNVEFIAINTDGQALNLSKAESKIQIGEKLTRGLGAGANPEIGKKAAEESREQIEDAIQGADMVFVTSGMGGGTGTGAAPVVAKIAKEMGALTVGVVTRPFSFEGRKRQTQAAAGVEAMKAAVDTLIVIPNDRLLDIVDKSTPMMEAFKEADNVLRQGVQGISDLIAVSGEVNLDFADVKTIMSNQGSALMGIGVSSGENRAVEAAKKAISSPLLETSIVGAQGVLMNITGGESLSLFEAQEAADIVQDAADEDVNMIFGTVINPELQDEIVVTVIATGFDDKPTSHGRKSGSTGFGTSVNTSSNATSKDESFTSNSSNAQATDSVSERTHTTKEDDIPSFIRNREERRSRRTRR

[5] = system: Staphylococcus aureus; test: Antibacterial activity against Staphylococcus aureus ATCC 601055 with FtsZ P300R point mutation; type: functional
[6] = system: Staphylococcus aureus; test: Antibacterial activity against methicillin-susceptible Staphylococcus aureus ATCC 601055; type: functional
[7] = system: Staphylococcus aureus; test: Antibacterial activity against Staphylococcus aureus ATCC 601055 with FtsZ […] point mutation; type: functional
[8] = system: Staphylococcus epidermidis; test: Antibacterial activity against Staphylococcus epidermidis ATCC 12228; type: functional
[9] = system: Staphylococcus aureus; test: Antibacterial activity against methicillin-resistant Staphylococcus aureus ATCC 607004; type: functional
[10] = system: Staphylococcus aureus; test: Antibacterial activity against methicillin-susceptible Staphylococcus aureus ATCC 19636; type: functional
[11] = system: Staphylococcus aureus; test: Antibacterial activity against […] Staphylococcus aureus ATCC 29213; type: functional
[12] = system: Staphylococcus aureus; test: Antibacterial activity against methicillin-resistant Staphylococcus aureus ATCC 700698; type: functional
[13] = system: Staphylococcus aureus; test: Antibacterial activity against methicillin-resistant Staphylococcus aureus ATCC 43300; type: functional
[14] = system: Staphylococcus aureus; test: Antibacterial activity against methicillin-susceptible Staphylococcus aureus ATCC 25923; type: functional

Structure (SMILES) | MIC [1] [µg/mL] | MIC [2] [µg/mL] | Activity [3] [µg/mL] | also measured
COc1cc(OC)cc(C(N)=O)c1 | > 4000 | – | – | –
COc1ccc(C(N)=O)cc1OC | > 4000 | – | – | –
CC(=O)O[C@H]1C[C@@]2(C)[C@@H](C[C@@H](O)[C@H]3[C@@]4(C)CC[C@@H](O)[C@@H](C)[C@@H]4CC[C@@]32C)/C1=C(\CCC=C(C)C)C(=O)O [FUSIDIC ACID] | – | 0.06 (≈ 0.116 µM) | – | –
CCCCCCCCCCCCOc1cccc(C(N)=O)c1 | – | > 256 | > 128 | –
CCCCCCCCCOc1ccc(F)c(C(N)=O)c1Cl | 0.5 (≈ 1.58 µM) | 2 (≈ 6.33 µM) | 0.5 | Activity [4]: 1 µg/mL
CCCCCCCCCOc1cccc(C(N)=O)c1 | 0.5 (≈ 1.9 µM) | 2 (≈ 7.59 µM) | 0.18 | MIC [5]: > 128 µg/mL; MIC [6]: 2 µg/mL (≈ 7.59 µM); MIC [7]: > 128 µg/mL
CCCCCCCCOc1cccc(C(N)=O)c1 | 1 (≈ 4.01 µM) | 4 (≈ 16 µM) | 0.37 | –
O=C(O)c1cn(C2CC2)c2cc(N3CCNCC3)c(F)cc2c1=O [CIPROFLOXACIN] | – | 0.5 (≈ 1.51 µM) | – | –
C/C(=C\C(=O)OCCCCCCCCC(=O)O)C[C@@H]1OC[C@H](C[C@@H]2O[C@H]2[C@@H](C)[C@H](C)O)[C@@H](O)[C@H]1O [MUPIROCIN] | – | 0.12 (≈ 0.24 µM) | – | –
COc1cc(C(N)=O)ccc1[N+](=O)[O-] | > 4000 | – | – | –
COc1ccc(F)c(C(N)=O)c1Cl | > 4000 | – | 2050 | –
CCCCCCCCCCCOc1cccc(C(N)=O)c1 | 4 (≈ 13.7 µM) | > 256 | 1 | –
COc1cc(C(N)=O)ccc1F | > 4000 | – | – | –
CCCCCCOc1cccc(C(N)=O)c1 | 16 (≈ 72.3 µM) | 16 (≈ 72.3 µM) | 8 | MIC [8]: 32 µg/mL (≈ 145 µM); MIC [9]: 32 µg/mL (≈ 145 µM); MIC [10]: 16 µg/mL (≈ 72.3 µM); MIC [11]: 16 µg/mL (≈ 72.3 µM); MIC [12]: 32 µg/mL (≈ 145 µM); MIC [5]: > 128 µg/mL; MIC [6]: 32 µg/mL (≈ 145 µM); MIC [13]: 16 µg/mL (≈ 72.3 µM); MIC [7]: > 128 µg/mL; MIC [14]: 16 µg/mL (≈ 72.3 µM)
O=C(N[C@H](CO)[C@H](O)c1ccc([N+](=O)[O-])cc1)C(Cl)Cl [CHLORAMPHENICOL] | – | 4 (≈ 12.4 µM) | – | –
COc1ccc(Cl)c(C(N)=O)c1F | 1020 (≈ 5030 µM) | – | 256 | –
COc1ccc(F)c(C(N)=O)c1F | 512 (≈ 2740 µM) | 512 (≈ 2740 µM) | 256 | –
NC(=O)c1cccc(O)c1 | > 4000 | – | 3000 | –
CCCCCCCCCOc1ccc(F)c(C(N)=O)c1F | 0.125 (≈ 0.418 µM) | 0.5 (≈ 1.67 µM) | 0.125 | Activity [4]: 0.25 µg/mL
CCCCCCCCCOc1cccc(C(N)=O)c1F | 0.125 (≈ 0.444 µM) | 0.5 (≈ 1.78 µM) | 0.125 | Activity [4]: 0.5 µg/mL
CCCCCCCCCOc1ccc(F)c(C(N)=O)c1 | 1 (≈ 3.55 µM) | 8 (≈ 28.4 µM) | 1 | Activity [4]: 2 µg/mL
CCCCCCCCCOc1ccc(Cl)c(C(N)=O)c1F | 0.5 (≈ 1.58 µM) | 1 (≈ 3.17 µM) | 0.25 | Activity [4]: 0.5 µg/mL
CCCCCCCCCCOc1cccc(C(N)=O)c1 | 1 (≈ 3.6 µM) | 64 (≈ 231 µM) | 0.5 | –
COc1cccc(C(N)=O)c1 | 4000 (≈ 26500 µM) | 2050 (≈ 13500 µM) | 500 | MIC [8]: 4100 µg/mL (≈ 27100 µM); MIC [9]: 4100 µg/mL (≈ 27100 µM); MIC [10]: 2050 µg/mL (≈ 13500 µM); MIC [11]: 2050 µg/mL (≈ 13500 µM); MIC [12]: 4100 µg/mL (≈ 27100 µM); MIC [5]: > 8000 µg/mL; MIC [6]: 4000 µg/mL (≈ 26500 µM); MIC [13]: 4100 µg/mL (≈ 27100 µM); MIC [7]: > 8000 µg/mL; MIC [14]: 4100 µg/mL (≈ 27100 µM)

The next lines start with results.

MIC [1] [µg/mL] | MIC [2] [µg/mL] | Activity [3] [µg/mL] | Structure (SMILES) | also measured
> 4000 | – | – | COc1cccc(C(N)=O)c1OC | –
4 (≈ 17 µM) | 8 (≈ 34 µM) | 1.5 | CCCCCCCOc1cccc(C(N)=O)c1 | –
> 4000 | – | – | CNC(=O)c1cccc(OC)c1 | –
> 4000 | – | – | COc1ccc(OC)c(C(N)=O)c1 | –
32 (≈ 154 µM) | 32 (≈ 154 µM) | 24 | CCCCCOc1cccc(C(N)=O)c1 | –
128 (≈ 662 µM) | 128 (≈ 662 µM) | 24 | CCCCOc1cccc(C(N)=O)c1 | –
> 4000 | – | – | COc1ccc(C(N)=O)cc1 | –
512 (≈ 3030 µM) | 512 (≈ 3030 µM) | 128 | COc1cccc(C(N)=O)c1F | –
> 4000 | – | – | NC(=O)c1cccc(OC(F)(F)F)c1 | –
4000 (≈ 23900 µM) | – | – | COc1cccc(C(=O)NO)c1 | –
2000 (≈ 12100 µM) | 1020 (≈ 6200 µM) | 500 | CCOc1cccc(C(N)=O)c1 | –
> 4000 | – | – | COc1cccc(C(N)=O)c1[N+](=O)[O-] | –
> 4000 | – | – | COc1cccc(C(N)=O)c1C | –
800 (≈ 4730 µM) | – | – | COc1ccc(F)c(C(N)=O)c1 | –
2000 (≈ 12000 µM) | – | – | COc1cccc(C(N)=S)c1 | –
500 (≈ 2790 µM) | 256 (≈ 1430 µM) | 375 | CCCOc1cccc(C(N)=O)c1 | –
> 4000 | – | – | CNc1cccc(C(N)=O)c1 | –
> 4000 | – | – | COc1cccc(C(=O)O)c1 | –
> 4000 | – | – | COc1cccc(CC(N)=O)c1 | –
> 4000 | – | – | COc1ccc([N+](=O)[O-])c(C(N)=O)c1 | –
> 4000 | – | – | CSc1cccc(C(N)=O)c1 | –
250 (≈ 1820 µM) | – | – | COc1cccc(CN)c1 | –
> 2000 | – | – | Cc1cccc(C(N)=O)c1 | –
